The supplement of paper PMC10307832

Key:
Assay in all cases: relative viability (nuclei count vs DMSO), 5 days (fraction); higher = more cells survive
[1] = compound: CC1=C(C(=O)N2C=CSC2=N1)CCN3CCC(=C(C4=CC=CC=C4)C5=CC=C(C=C5)F)CC3 + Cc1cc(Nc2cc(N3CCN(C)CC3)nc(Sc3ccc(NC(=O)C4CC4)cc3)n2)n[nH]1 [Tozasertib] (partner 0.1 µM)
Method in brief: (§1)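 Each reported value is a median over duplicate plates. It expresses relative viability: treated-well nuclei count divided by vehicle-well nuclei count. Lung cancer cell lines in 1536-well plates were dosed by pin tool a day after seeding, alone with one drug or with a fixed anchor-drug dose plus five library-drug doses (not always all listed) in √10 steps, and nuclei were counted after 5 days.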

[2] = compound: CC1=C(C(=O)N2C=CSC2=N1)CCN3CCC(=C(C4=CC=CC=C4)C5=CC=C(C=C5)F)CC3 + N=C(N)NC(=N)NCCc1ccccc1 [Phenformin] (partner 250 µM)
Method in brief: as §1

[3] = compound: CC1=C(C(=O)N2C=CSC2=N1)CCN3CCC(=C(C4=CC=CC=C4)C5=CC=C(C=C5)F)CC3 + CC1(C)CCC(c2ccc(Cl)cc2)=C(CN2CCN(c3ccc(C(=O)NS(=O)(=O)c4ccc(N[C@H](CCN5CCOCC5)CSc5ccccc5)c(S(=O)(=O)C(F)(F)F)c4)cc3)CC2)C1 [Navitoclax] (partner 0.5 µM)
Method in brief: as §1

[4] = compound: CC1=C(C(=O)N2C=CSC2=N1)CCN3CCC(=C(C4=CC=CC=C4)C5=CC=C(C=C5)F)CC3
Method in brief: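 Vehicle-anchored 1536-well plates of lung cancer cell lines, held overnight at 37 °C, were pinned with five library-drug doses (not always all listed) spaced by √10. No medium change followed over the next 5 days, after which the cells were fixed, permeabilised and Hoechst-stained together and imaged at 4×. Nuclei were counted with MetaXpress, and viability is treated-well nuclei over vehicle-well nuclei, taken as a median across plates. Plates passed with control CV below 25% and at least one doubling.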

| Cell Line | relative viability ([1]; first compound 0.08 µM) | relative viability ([1]; first compound 0.253 µM) | relative viability ([1]; first compound 0.8 µM) | relative viability ([1]; first compound 2.53 µM) | relative viability ([1]; first compound 8 µM) | relative viability ([2]; first compound 0.08 µM) | relative viability ([2]; first compound 0.253 µM) | relative viability ([2]; first compound 0.8 µM) | relative viability ([2]; first compound 2.53 µM) | relative viability ([2]; first compound 8 µM) | relative viability ([3]; first compound 0.08 µM) | relative viability ([3]; first compound 0.253 µM) | relative viability ([3]; first compound 0.8 µM) | relative viability ([3]; first compound 2.53 µM) | relative viability ([3]; first compound 8 µM) | relative viability ([4]; 0.08 µM) | relative viability ([4]; 0.253 µM) | relative viability ([4]; 0.8 µM) | relative viability ([4]; 2.53 µM) | relative viability ([4]; 8 µM) |
| --- | --- | --- | --- | --- | --- | --- | --- | --- | --- | --- | --- | --- | --- | --- | --- | --- | --- | --- | --- | --- |
| NCI-H2347 | 0.439 | 0.554 | 0.525 | 0.471 | 0.487 | 0.299 | 0.403 | 0.317 | 0.421 | 0.397 | 0.313 | 0.739 | 0.89 | 0.663 | 0.552 | 0.964 | 1.07 | 1.04 | 1.05 | 0.775 |
| NCI-H2405 | 0.777 | 0.767 | 0.749 | 0.601 | 0.618 | 0.373 | 0.366 | 0.399 | 0.375 | 0.332 | 0.892 | 0.968 | 1.08 | 0.962 | 0.705 | 0.967 | 0.975 | 0.99 | 1.11 | 0.82 |
| NCI-H3122 | 0.315 | 0.351 | 0.392 | 0.491 | 0.324 | 0.38 | 0.376 | 0.386 | 0.396 | 0.394 | 1.11 | 1.04 | 1.03 | 1.04 | 0.965 | 0.951 | 1.04 | 1.01 | 1.12 | 0.715 |
| PC-3 [JPC-3] | 0.924 | 0.821 | 0.91 | 0.988 | 0.66 | 0.49 | 0.451 | 0.454 | 0.525 | 0.495 | 0.789 | 0.657 | 0.845 | 0.921 | 0.803 | 0.987 | 0.939 | 1.04 | 1.08 | 0.839 |
| PC-14 | 0.489 | 0.675 | 0.603 | 0.681 | 0.481 | 0.624 | 0.558 | 0.518 | 0.661 | 0.296 | 0.655 | 0.974 | 1.05 | 1.09 | 0.449 | 0.939 | 1.02 | 1.06 | 1.1 | 0.624 |
| RERF-LC-KJ | 0.432 | 0.462 | 0.518 | 0.426 | 0.452 | 0.345 | 0.427 | 0.414 | 0.534 | 0.289 | 0.933 | 0.769 | 0.806 | 1 | 0.681 | 0.932 | 1.01 | 0.964 | 0.989 | 0.662 |
| SK-LU-1 | 0.307 | 0.286 | 0.288 | 0.283 | 0.295 | 0.672 | 0.475 | 0.585 | 0.576 | 0.42 | 0.586 | 0.899 | 0.941 | 0.913 | 0.371 | 0.845 | 0.955 | 1.18 | 1.15 | 0.648 |
| SK-MES-1 | 0.922 | 0.971 | 0.862 | 1.08 | 0.601 | 0.608 | 0.693 | 0.699 | 0.73 | 0.522 | 1.36 | 1.21 | 1.41 | 1.47 | 0.86 | 1.02 | 1.01 | 1.03 | 1.09 | 0.692 |
| SW 1573 | – | 0.211 | 0.157 | 0.203 | 0.21 | – | 0.343 | 0.4 | 0.377 | 0.24 | 0.777 | 1.02 | 1.11 | 1.15 | 0.409 | 0.892 | 1.12 | 1.08 | 1.04 | 0.61 |
| UMC-11 | 0.208 | 0.225 | 0.194 | 0.212 | 0.202 | 0.366 | 0.326 | 0.321 | 0.338 | 0.255 | 0.288 | 0.253 | 0.294 | 0.309 | 0.276 | 0.914 | 0.952 | 0.936 | 1.17 | 0.713 |
